# Measured values reported in US9695163B2, “Thiazole orexin receptor antagonists” (MERCK SHARP & DOHME CORP., priority 2013, dated 2017).
# Assays:
# [1] = target: human orexin-2 receptor (hOX2R) (Homo sapiens (Human), UniProt O43614); experiment: FLIPR Ca2+ Flux Assay, CHO cells expressing human orexin-2 receptor; format: cell-based; conditions: agonist Ala-6,12 human orexin-A 70 pM
# Method: Briefly, for intracellular calcium measurements, Chinese hamster ovary (CHO) cells expressing the orexin-1 receptor (e.g., rat or human) or the orexin-2 receptor (e.g., rat or human), are grown in Iscove's modified DMEM containing 2 mM L-glutamine, […], 1% hypoxanthine-thymidine supplement, 100 U/ml penicillin, 100 μg/ml streptomycin and 10% heat-inactivated fetal calf serum (FCS). The cells are seeded at approximately 20,000 cells per well into 384-well clear bottom sterile plates coated with poly-D-lysine. The seeded plates are incubated overnight at 37° C. and 5% CO2. Human ala-6,12 orexin-A can be used as the agonist and prepared as a 1 mM stock solution in 1% bovine serum albumin (BSA) and diluted in assay buffer (HBSS containing 20 mM HEPES, 0.1% BSA and 2.5 mM probenecid, pH7.4) for use in the assay at a final concentration of 70 pM. Test compounds are prepared as 10 mM stock solution in DMSO, then diluted in 384-well plates, first in DMSO, then in assay buffer. On the day of the assay, cells are washed 3 times with 100 μl assay buffer and then incubated for 60 minutes (37° C., 5% CO2) in 60 μl assay buffer containing 1 μM Fluo-4 AM ester, 0.02% pluronic acid, and 1% BSA. The dye loading solution is then aspirated and cells are washed 3 times with 100 μl assay buffer. 30 μl of that same buffer is left in each well. Within the Fluorescent Imaging Plate Reader (FLIPR, Molecular Devices), test compounds are added to the plate in a volume of 25 μl, incubated for 5 minutes, and then 25 μl of agonist is added. Fluorescence is measured for each well at 1 second intervals for 5 minutes, and the height of each fluorescence peak is compared to the height of the fluorescence peak induced by 70 pM of agonist ala-6,12 orexin-A with buffer in place of test compound. IC50 value for the test compound is determined to be the concentration of compound needed to inhibit 50% of the agonist response. Alternatively, compound potency can be assessed using a radioligand binding assay (described in Bergman et. al., Bioorg. Med. Chem. Lett. 2008, 18:1425-1430) in which the inhibition constant (Ki) is determined in membranes prepared from CHO cells expressing either the OX1 or OX2 receptor. The intrinsic orexin receptor antagonist activity of a compound of the present invention may be determined by these assays. […]
# [2] = target: human orexin-1 receptor (hOX1R) (Homo sapiens (Human), UniProt O43613); experiment: FLIPR Ca2+ Flux Assay, CHO cells expressing human orexin-1 receptor; format: cell-based; conditions: agonist Ala-6,12 human orexin-A 70 pM
# Source text: The utility of the compounds in accordance with the present invention as orexin receptor OX1R and/or OX2R antagonists may be readily determined without undue experimentation by methodology well known in the art, including the “FLIPR Ca^2+ Flux Assay” (Okumura et al., Biochem. Biophys. Res. Comm. 2001, 280:976-981). Briefly, for intracellular calcium measurements, Chinese hamster ovary (CHO) cells expressing the orexin-1 receptor (e.g., rat or human) or the orexin-2 receptor (e.g., rat or human), are grown in Iscove's modified DMEM containing 2 mM L-glutamine, […], 1% hypoxanthine-thymidine supplement, 100 U/ml penicillin, 100 μg/ml streptomycin and 10% heat-inactivated fetal calf serum (FCS). The cells are seeded at approximately 20,000 cells per well into 384-well clear bottom sterile plates coated with poly-D-lysine. The seeded plates are incubated overnight at 37° C. and 5% CO2. Human ala-6,12 orexin-A can be used as the agonist and prepared as a 1 mM stock solution in 1% bovine serum albumin (BSA) and diluted in assay buffer (HBSS containing 20 mM HEPES, 0.1% BSA and 2.5 mM probenecid, pH7.4) for use in the assay at a final concentration of 70 pM. Test compounds are prepared as 10 mM stock solution in DMSO, then diluted in 384-well plates, first in DMSO, then in assay buffer. On the day of the assay, cells are washed 3 times with 100 μl assay buffer and then incubated for 60 minutes (37° C., 5% CO2) in 60 μl assay buffer containing 1 μM Fluo-4 AM ester, 0.02% pluronic acid, and 1% BSA. The dye loading solution is then aspirated and cells are washed 3 times with 100 μl assay buffer. 30 μl of that same buffer is left in each well. Within the Fluorescent Imaging Plate Reader (FLIPR, Molecular Devices), test compounds are added to the plate in a volume of 25 μl, incubated for 5 minutes, and then 25 μl of agonist is added. Fluorescence is measured for each well at 1 second intervals for 5 minutes, and the height of each fluorescence peak is compared to the height of the fluorescence peak induced by 70 pM of agonist ala-6,12 orexin-A with buffer in place of test compound. IC50 value for the test compound is determined to be the concentration of compound needed to inhibit 50% of the agonist response. Alternatively, compound potency can be assessed using a radioligand binding assay (described in Bergman et. al., Bioorg. Med. Chem. Lett. 2008, 18:1425-1430) in which the inhibition constant (Ki) is determined in membranes prepared from CHO cells expressing either the OX1 or OX2 receptor. The intrinsic orexin receptor antagonist activity of a compound of the present invention may be determined by these assays.
# Chain of human orexin-2 receptor (hOX2R) (O43614 whole entry): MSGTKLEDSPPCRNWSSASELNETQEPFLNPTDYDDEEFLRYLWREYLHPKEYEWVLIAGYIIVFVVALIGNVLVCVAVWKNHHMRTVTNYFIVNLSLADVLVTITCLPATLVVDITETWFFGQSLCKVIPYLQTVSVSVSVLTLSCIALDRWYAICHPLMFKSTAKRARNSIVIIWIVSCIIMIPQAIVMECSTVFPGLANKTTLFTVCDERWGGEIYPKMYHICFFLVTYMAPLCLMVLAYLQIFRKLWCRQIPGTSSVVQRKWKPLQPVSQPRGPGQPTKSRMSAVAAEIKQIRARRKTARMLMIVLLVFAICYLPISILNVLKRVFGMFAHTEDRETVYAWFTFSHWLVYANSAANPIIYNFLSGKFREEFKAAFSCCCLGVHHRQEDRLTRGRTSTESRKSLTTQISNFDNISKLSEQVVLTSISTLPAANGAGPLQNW
# Chain of human orexin-1 receptor (hOX1R) (O43613 whole entry): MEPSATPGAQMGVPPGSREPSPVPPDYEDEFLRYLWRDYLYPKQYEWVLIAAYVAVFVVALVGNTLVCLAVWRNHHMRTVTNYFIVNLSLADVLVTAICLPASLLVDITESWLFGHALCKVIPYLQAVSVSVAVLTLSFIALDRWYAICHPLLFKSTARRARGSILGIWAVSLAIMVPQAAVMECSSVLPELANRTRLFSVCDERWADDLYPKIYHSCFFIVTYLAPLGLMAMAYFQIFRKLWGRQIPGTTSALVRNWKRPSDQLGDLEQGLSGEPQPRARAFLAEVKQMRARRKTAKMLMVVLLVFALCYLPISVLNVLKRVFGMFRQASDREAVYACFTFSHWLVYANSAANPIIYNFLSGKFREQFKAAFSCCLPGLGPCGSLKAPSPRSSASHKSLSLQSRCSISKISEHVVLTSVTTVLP
Molecule,IC50 [1] [nM],IC50 [2] [nM]
"Cc1sc([C@@H]2CC[C@@H](C)N(C(=O)c3ccccc3-n3nccn3)C2)nc1C(C)(C)O [Example 19, (2-(2H-1,2,3-Triazol-2-yl)phenyl)((2R,5R)-5-(4-(2-hydroxypropan-2-yl)-5-methylthiazol-2-yl)-2-methylpiperidin-1-yl)methanone]",14,330
"Cc1sc([C@@H]2CC[C@@H](C)N(C(=O)c3cscc3-c3ncccn3)C2)nc1C(C)(C)O [Example 28, ((2R,5R)-5-(4-(2-Hydroxypropan-2-yl)-5-methylthiazol-2-yl)-2-methylpiperidin-1-yl)(4-(pyrimidin-2-yl)thiophen-3-yl)methanone]",29,900
"C[C@@H]1CC[C@@H](c2nc(C(C)(C)O)cs2)CN1C(=O)c1ccc(F)cc1-n1nccn1 [Example 13, (4-fluoro-2-(2H-1,2,3-triazol-2-yl)phenyl)((2R,5R)-5-(4-(2-hydroxypropan-2-yl)thiazol-2-yl)-2-methylpiperidin-1-yl)methanone]",19,2250
"C[C@@H]1CC[C@@H](c2ncc(C(C)(C)O)s2)CN1C(=O)c1ccccc1-n1nccn1 [Example 2, (2-(2H-1,2,3-Triazol-2-yl)phenyl)((2R,5R)-5-(5-(2-hydroxypropan-2-yl)thiazol-2-yl)-2-methylpiperidin-1-yl)methanone]",67,> 10000
"COC(=O)c1ccccc1C(=O)N1C[C@H](c2nc(C(C)(C)O)cs2)CC[C@H]1C [Example 12, Methyl 2-((2R,5R)-5-(4-(2-hydroxypropan-2-yl)thiazol-2-yl)-2-methylpiperidine-1-carbonyl)benzoate]",44,> 10000
"C[C@@H]1CC[C@@H](c2nc(C(C)(C)O)cs2)CN1C(=O)c1cscc1-n1nccn1 [Example 15, (4-(2H-1,2,3-Triazol-2-yl)thiophen-3-yl)((2R,5R)-5-(4-(2-hydroxypropan-2-yl)thiazol-2-yl)-2-methylpiperidin-1-yl)methanone]",16,> 10000
"Cc1sc([C@@H]2CC[C@@H](C)N(C(=O)c3cscc3-n3nccn3)C2)nc1C(C)(C)O [Example 21, (4-(2H-1,2,3-triazol-2-yl)thiophen-3-yl)((2R,5R)-5-(4-(2-hydroxypropan-2-yl)-5-methylthiazol-2-yl)-2-methylpiperidin-1-yl)methanone]",30,2800
"Cc1sc([C@@H]2CC[C@@H](C)N(C(=O)c3ccsc3-n3nccn3)C2)nc1C(C)(C)O [Example 20, (2-(2H-1,2,3-triazol-2-yl)thiophen-3-yl)((2R,5R)-5-(4-(2-hydroxypropan-2-yl)-5-methylthiazol-2-yl)-2-methylpiperidin-1-yl)methanone]",12,970
"Cc1sc([C@@H]2CC[C@@H](C)N(C(=O)c3ccccc3C3(C#N)CC3)C2)nc1C(C)(C)O [Example 25, 1-(2-((2R,5R)-5-(4-(2-Hydroxypropan-2-yl)-5-methylthiazol-2-yl)-2-methylpiperidine-1-carbonyl)phenyl)cyclopropanecarbonitrile]",12,240
"C[C@@H]1CC[C@@H](c2csc(C(C)(C)O)n2)CN1C(=O)c1ccccc1-n1nccn1 [Example 36, (2-(2H-1,2,3-triazol-2-yl)phenyl)((2R,5R)-5-(2-(2-hydroxypropan-2-yl)thiazol-4-yl)-2-methylpiperidin-1-yl)methanone]",20,2300
"C[C@@H]1CC[C@@H](c2csc(C(C)(C)O)n2)CN1C(=O)c1ccccc1-n1ncnn1 [Example 29, (2-(2H-Tetrazol-2-yl)phenyl)((2R,5R)-5-(2-(2-hydroxypropan-2-yl)thiazol-4-yl)-2-methylpiperidin-1-yl)methanone]",15,
"C[C@@H]1CC[C@H](c2ncc(C(C)(C)O)s2)CN1C(=O)c1ccccc1-n1nccn1 [Example 3, (2-(2H-1,2,3-Triazol-2-yl)phenyl)((2R,5S)-5-(5-(2-hydroxypropan-2-yl)thiazol-2-yl)-2-methylpiperidin-1-yl)methanone]",2650,> 10000
"C[C@@H]1CC[C@@H](c2nc(C(C)(C)O)cs2)CN1C(=O)c1ccsc1-n1nccn1 [Example 10, (2-(2H-1,2,3-triazol-2-yl)thiophen-3-yl)((2R,5R)-5-(4-(2-hydroxypropan-2-yl)thiazol-2-yl)-2-methylpiperidin-1-yl)methanone]",19,7400
"C[C@@H]1CC[C@@H](c2csc(C(C)(C)O)n2)CN1C(=O)c1ccc(F)cc1-n1nccn1 [Example 38, (4-Fluoro-2-(2H-1,2,3-triazol-2-yl)phenyl)((2R,5R)-5-(2-(2-hydroxypropan-2-yl)thiazol-4-yl)-2-methylpiperidin-1-yl)methanone]",14,2050
"C[C@@H]1CC[C@@H](c2nc([C@@H](O)C(F)(F)F)cs2)CN1C(=O)c1ccccc1-n1nccn1 [Example 7, (2-(2H-1,2,3-triazol-2-yl)phenyl)((2R,5R)-2-methyl-5-(4-((R)-2,2,2-trifluoro-1-hydroxyethyl)thiazol-2-yl)piperidin-1-yl)methanone]",15,360
"C[C@@H]1CC[C@@H](c2csc(C(C)(C)O)n2)CN1C(=O)c1ccsc1-c1ncccn1 [Example 31, ((2R,5R)-5-(2-(2-hydroxypropan-2-yl)thiazol-4-yl)-2-methylpiperidin-1-yl)(2-(pyrimidin-2-yl)thiophen-3-yl)methanone]",90,> 10000
"C[C@@H]1CC[C@@H](c2nc(C(C)(C)O)cs2)CN1C(=O)c1ccsc1-c1ncccn1 [Example 18, ((2R,5R)-5-(4-(2-Hydroxypropan-2-yl)thiazol-2-yl)-2-methylpiperidin-1-yl)(2-(pyrimidin-2-yl)thiophen-3-yl)methanone]",114,> 10000
"Cc1sc([C@@H]2CC[C@@H](C)N(C(=O)c3ccccc3-n3ncnn3)C2)nc1C(C)(C)O [Example 24, (2-(2H-Tetrazol-2-yl)phenyl)((2R,5R)-5-(4-(2-hydroxypropan-2-yl)-5-methylthiazol-2-yl)-2-methylpiperidin-1-yl)methanone]",19,2650
"((2R,5R)-5-(4-(2-Hydroxypropan-2-yl)-5- methylthiazol-2-yl)-2-methylpiperidin-1- yl)(2-(pyrimidin-2-yl)thiophen-3- yl)methanone [Example 27]",87,700
